Experimental data as given in ChEMBL document CHEMBL5143626, “Marine Natural Products as Leads against SARS-CoV-2 Infection” (J Nat Prod, 2022).
Activity calls are given as the source filed them. The rule behind the calls is not given here.

Experiments:
[1] = (§1) Cytotoxicity against human Calu-3 cells assessed as reduction in cell viability; assay type: toxicity, cell-based; conditions: Calu-3 cells
SARS-CoV-2 [2] = assay: Antiviral activity against SARS-CoV-2 isolate USA-WA1/2020 infected in Calu-3 cells preincubated for 24 hrs followed by viral infection and measured after 48 hrs by Hoechst 33342 staining based microscopic method; assay type: functional, organism-based; conditions: Severe acute respiratory syndrome coronavirus 2, USA-WA1/2020, Calu-3
SARS-CoV-2 [3] = assay: Antiviral activity against SARS-CoV-2 isolate USA-WA1/2020 infected in Calu-3 cells at 2.8 uM preincubated for 24 hrs followed by viral infection and measured after 48 hrs by Hoechst 33342 staining based microscopic method; assay type: functional, organism-based; conditions: Severe acute respiratory syndrome coronavirus 2, time 72.0 hrs
SARS-CoV-2 [4] = assay: Antiviral activity against SARS-CoV-2 isolate USA-WA1/2020 infected in human Primary bronchial epithelial cells assessed as reduction in viral RNA replication at 2.8 uM preincubated for 1 hr followed by viral infection and measured after 48 hrs by qRT-PCR method relative to control; assay type: functional, Severe acute respiratory syndrome coronavirus 2, Primary bronchial epithelial cell; set-up: scale not given: the % may be the effect or the level left; conditions: time 49 hrs
SARS-CoV-2 [5] = assay: Antiviral activity against SARS-CoV-2 isolate USA-WA1/2020 infected in Calu-3 cells assessed at 0.5 uM preincubated for 24 hrs followed by viral infection and measured after 48 hrs by Hoechst 33342 staining based microscopic method relative to control; assay type: functional, organism-based; conditions: Severe acute respiratory syndrome coronavirus 2, time 72.0 hrs
Calu-3 = assay: as §1; assay type: toxicity, cell-based; conditions: calu-3
SARS-CoV-2 [6] = assay: Antiviral activity against SARS-CoV-2 isolate USA-WA1/2020 infected in Calu-3 cells at 1 uM preincubated for 24 hrs followed by viral infection and measured after 48 hrs by Hoechst 33342 staining based microscopic method; assay type: functional, organism-based; conditions: Severe acute respiratory syndrome coronavirus 2, time 72.0 hrs
SARS-CoV-2 [7] = assay: Antiviral activity against SARS-CoV-2 isolate USA-WA1/2020 infected in Calu-3 cells at 10 uM preincubated for 24 hrs followed by viral infection and measured after 48 hrs by Hoechst 33342 staining based microscopic method; assay type: functional, organism-based; conditions: Severe acute respiratory syndrome coronavirus 2, time 72.0 hrs

CC(=O)C[C@]1(O)c2ccccc2-[n+]2ccc3c([nH]c4ccccc43)c21.O=C([O-])C(F)(F)F
CC50 [1]: 5 µM
EC50 (SARS-CoV-2 [2]): 1.1 µM
Activity (SARS-CoV-2 [3]): Active
Activity (SARS-CoV-2 [4]): >90%
Activity (SARS-CoV-2 [5]): Active

C[C@H]1CC[C@H]2C(C)(C)CCC[C@]23Oc2ccc(O)cc2C[C@]13C [AUREOL]
CC50 (Calu-3): > 10 µM
EC50 (SARS-CoV-2 [2]): 4 µM
Activity (SARS-CoV-2 [6]): Active
Activity (SARS-CoV-2 [7]): Active

CC(C)=CCC[C@@H](C)[C@H]1CC[C@@]2(C(=O)O)C3=C(CC[C@]12C)[C@@]1(C)CC[C@H](O[C@@H]2OC[C@H](O)[C@H](O[C@@H]4OC[C@H](O)[C@H](O[C@@H]5O[C@H](CO)[C@H](O)[C@H](O)[C@H]5O)[C@H]4O)[C@H]2O[C@@H]2O[C@H](CO)[C@H](O)[C@H](O)[C@H]2O)C(C)(C)C1CC3 (stereo partly specified)
Activity (SARS-CoV-2 [6]): Active

CCC(CC)COC(=O)[C@H](C)N[P@](=O)(OC[C@H]1O[C@@](C#N)(c2ccc3c(N)ncnn23)[C@H](O)[C@@H]1O)Oc1ccccc1 [REMDESIVIR]
CC50 (Calu-3): > 5 µM
EC50 (SARS-CoV-2 [2]): 0.3 µM

CC1=C2Cc3cc(ccc3O)C(=O)O[C@H](C(C)(C)Br)CC[C@](C)(O)[C@H](Br)CC[C@]2(C)[C@@H](Br)CC1
CC50 (Calu-3): > 10 µM
EC50 (SARS-CoV-2 [2]): 6.9 µM
Activity (SARS-CoV-2 [6]): Active
Activity (SARS-CoV-2 [7]): Active
